Measurements taken from PubChem BioAssay AID651630 (Sanford-Burnham Center for Chemical Genomics, 2012).
Activity calls are given as the source filed them.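 The calls were made as follows: active = lipid-stain IC50 at or below a set limit, with nuclear-stain toxicity IC50 at least five times higher; inactive = the rest.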

Legend:
TAG = test: triacylglycerol accumulation inhibitor potency, dose response, cell-based, panel, Nile Red and DAPI fluorescence, H9c2 (AID 651630); settings: H9c2 cells, Nile Red TAG fluorescence, oleic acid;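 also: cells exposed to compound overnight before fixation and staining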
DAPI = test: as above; settings: H9c2 cells, DAPI nuclear fluorescence (cytotoxicity counter-readout), oleic acid

Row | SMILES | IC50 (TAG; mean of runs) | IC50 (TAG; run 1) | IC50 (TAG; run 2) | IC50 cytotoxicity (DAPI nuclear signal decrease) (DAPI; mean of runs) | IC50 cytotoxicity (DAPI nuclear signal decrease) (DAPI; run 1) | IC50 cytotoxicity (DAPI nuclear signal decrease) (DAPI; run 2)
1 | CN(C)C(=S)N=c1ssc(=S)n1Cc1ccco1 | > 25 µM (inactive) | > 25 µM | > 25 µM | > 25 µM (inactive) | > 25 µM | > 25 µM
2 | CCOc1ccc(C(=O)Nc2nnc(NC(=S)Nc3ccccc3)s2)cc1 |  | > 25 µM | 23 µM | > 25 µM (inactive) | > 25 µM | > 25 µM
3 | Cc1occc1C(=O)NC(C)CCc1ccccc1 (stereo unspecified) | > 25 µM (inactive) | > 25 µM | > 25 µM | > 25 µM (inactive) | > 25 µM | > 25 µM
4 | CCN1CCN(Cc2ccc(NC(=O)c3cc(NC(=O)C(=O)c4c[nH]c5ccccc45)cc(OC)c3)cc2C(F)(F)F)CC1 | 5.76 µM | 5.58 µM | 5.93 µM | 23.4 µM (inactive) | 23.4 µM | 23.4 µM
5 | COc1cc(C2=NOC(C(=O)NCc3cccs3)C2)cc(OC)c1OC (stereo unspecified) | 13.7 µM | 17.3 µM | 10.1 µM | > 25 µM (inactive) | > 25 µM | > 25 µM
6 | CC(=O)Nc1cccc(-c2ccnc3c2CC(C)(C(=O)NCc2ccc(N(C)C)cc2)O3)c1 (stereo unspecified) | 15.1 µM (inactive) | 14.7 µM | 15.5 µM | > 25 µM (inactive) | > 25 µM | > 25 µM
7 | CCc1nc(C)c(C(=O)N2CCCC(C(=O)Nc3cccc(-c4cccc(C)c4)c3)C2)o1 (stereo unspecified) | > 25 µM (inactive) | > 25 µM | > 25 µM | > 25 µM (inactive) | > 25 µM | > 25 µM
8 | CCOc1ccc(CCNC(=O)CN2CCN(Cc3ccccc3C)C2=O)cc1OCC | 2.19 µM | 1.85 µM | 2.54 µM |  | > 25 µM | > 25 µM
9 | CN(C)CCCn1c(SCC(=O)Nc2nc(-c3cccc(Br)c3)cs2)nc2ccccc2c1=O | 9.78 µM | 10.1 µM | 9.46 µM | > 25 µM (inactive) | > 25 µM | > 25 µM
10 | COc1ccc(NC(=O)O[C@@H](C)[C@@H]2CN3CCc4c([nH]c5ccc(-c6ccc(OC)cc6)cc45)[C@@H]3C[C@@H]2N(C)C(=O)Nc2ccc(OC)cc2)cc1 | 8.04 µM | 7.66 µM | 8.42 µM | > 25 µM (inactive) | > 25 µM | > 25 µM
11 | Cc1cc(C)c2nc(-c3ccncc3)cc(C(=O)N3CCN(Cc4ccccc4Cl)CC3)c2c1 | 12.1 µM | 14.2 µM | 10.1 µM | > 25 µM (inactive) | > 25 µM | > 25 µM
12 | CN(C)CCCNC(=O)C[C@H]1C[C@H](C(=O)N2CCCCC2)[C@@]2(CCc3ccccc3)c3[nH]c4cc(-c5ccco5)ccc4c3CCN2C1=O |  | > 25 µM | 14.5 µM | > 25 µM (inactive) | > 25 µM | > 25 µM
13 | CCN(CC)CCNc1nc(-n2nc(C)cc2C)nc2sc3c(c12)CC(C)(C)OC3 | 19.4 µM (inactive) | 16.3 µM | 22.6 µM | > 25 µM (inactive) | > 25 µM | > 25 µM
14 | CC(C)(C)c1ccc(/C=N/NC(=O)Cc2c[nH]c3ccccc23)cc1 | 20.5 µM (inactive) | 16.5 µM | 24.4 µM | > 25 µM (inactive) | > 25 µM | > 25 µM
15 | CN(C)CCCN1c2ccccc2Sc2ccccc21 | > 25 µM (inactive) | > 25 µM | > 25 µM | > 25 µM (inactive) | > 25 µM | > 25 µM
16 | CO/N=C\CC(=O)Nc1ccc(Oc2ccccc2)cc1 | 7.97 µM | 9.14 µM | 6.8 µM | > 25 µM (inactive) | > 25 µM | > 25 µM
17 | COc1ccc(NC(=O)C2(C)Cc3c(-c4cccc(C(N)=O)c4)ccnc3O2)cc1 (stereo unspecified) |  | > 25 µM | 12.1 µM | > 25 µM (inactive) | > 25 µM | > 25 µM

Row | SMILES | IC50 (TAG; mean of runs) | IC50 (TAG; run 1) | IC50 (TAG; run 2) | IC50 cytotoxicity (DAPI nuclear signal decrease) (DAPI; mean of runs) | IC50 cytotoxicity (DAPI nuclear signal decrease) (DAPI; run 1) | IC50 cytotoxicity (DAPI nuclear signal decrease) (DAPI; run 2)
18 | COc1cc(NC(=O)Nc2nc(C(N)CCc3ccccc3)cs2)cc(OC)c1OC (stereo unspecified) | 6.55 µM | 5.15 µM | 7.96 µM | > 25 µM (inactive) | > 25 µM | > 25 µM
19 | COC(=O)c1c(NC(=S)NN2CCN(C)CC2)sc2c1CCC(C)C2 (stereo unspecified) |  | > 25 µM | 15.1 µM | 17.8 µM (inactive) | 18.5 µM | 17.1 µM
20 | COc1ccc(Nc2cc(=O)oc3ccccc23)cc1 | > 25 µM (inactive) | > 25 µM | > 25 µM | > 25 µM (inactive) | > 25 µM | > 25 µM
21 | COc1ccc(-n2nc(C(=O)Nc3ccc4c(c3)OCO4)c3c4ccccc4n(C)c3c2=O)cc1 |  | 24.8 µM | > 25 µM | > 25 µM (inactive) | > 25 µM | > 25 µM
22 | Cc1cc(C)nc(NC(=NCCc2c[nH]c3ccccc23)NC(=O)Nc2ccc(Cl)c(Cl)c2)n1 | 10.2 µM | 8.52 µM | 11.8 µM | > 25 µM (inactive) | > 25 µM | > 25 µM
23 | CC(=O)OC12COC1CC(O)C1(C)C(=O)C(O)C3=C(C)C(O)CC(O)(C(OC(=O)c4ccccc4)C21)C3(C)C (stereo unspecified) | 9.4 µM | 9.73 µM | 9.07 µM | > 25 µM (inactive) | > 25 µM | > 25 µM
24 | O=C(/C=C/c1ccc(OCCCF)cc1)NCc1ccc(Cl)c(Cl)c1 |  | > 25 µM | 21.3 µM | > 25 µM (inactive) | > 25 µM | > 25 µM
25 | C/C(=N\Nc1ccc(Cl)nn1)c1ccccc1O | > 25 µM (inactive) | > 25 µM | > 25 µM | > 25 µM (inactive) | > 25 µM | > 25 µM
26 | C[C@]12c3[nH]c4ccccc4c3CCN1C(=O)C(CC(=O)NCC13CC4CC(CC(C4)C1)C3)C[C@@H]2C(=O)N1CCCCC1 (stereo partly specified) | 14.6 µM | 14.8 µM | 14.4 µM | > 25 µM (inactive) | > 25 µM | > 25 µM
27 | COc1cc(C#Cc2c(-c3cncn3C)n(C)c3ccc(-c4cnc(N5CCOCC5)nc4)cc23)cc(OC)c1 | 11 µM | 14.3 µM | 7.65 µM | > 25 µM (inactive) | > 25 µM | > 25 µM
28 | CC(C)(C)OC(=O)N(CCc1ccccc1)Cc1ccc(OCc2cccc(NC(=O)/C=C/c3ccccc3)c2)cc1 | 7.63 µM | 7.99 µM | 7.28 µM | > 25 µM (inactive) | > 25 µM | > 25 µM
29 | COc1ccc(OC)c(N(CCN2C(=O)c3ccccc3C2=O)C(=O)CCl)c1 | > 25 µM (inactive) | > 25 µM | > 25 µM | > 25 µM (inactive) | > 25 µM | > 25 µM
30 | COc1ccc(-c2cc(NC=O)c3ncc(-c4cc(OC)c(OC)c(OC)c4)n3c2)c(OC)c1 | > 25 µM (inactive) | > 25 µM | > 25 µM | > 25 µM (inactive) | > 25 µM | > 25 µM
31 | Cc1ccc(-c2cc(C(F)F)n3ncc(C(=O)Nc4c(C)nn(Cc5c(Cl)cccc5Cl)c4C)c3n2)cc1 | > 25 µM (inactive) | > 25 µM | > 25 µM | > 25 µM (inactive) | > 25 µM | > 25 µM
32 | CSc1nc(N(C)NC(=O)c2ccccc2)c2ccccc2n1 | 17.8 µM (inactive) | 22 µM | 13.6 µM | > 25 µM (inactive) | > 25 µM | > 25 µM
33 | CCOCCOC(=O)c1[nH]c2c(c1C)C(=O)CC(c1cccs1)C2 (stereo unspecified) | > 25 µM (inactive) | > 25 µM | > 25 µM | > 25 µM (inactive) | > 25 µM | > 25 µM
